Like-named read-outs stand apart in the source and are kept apart here. A value given as a limit tells only on which side of the number the result lay.

Among the data in patent publication US5220018A, “Cholecystokinin antagonists” (Merck & Co., Inc., priority 1992, dated 1993) are IC50 values, retold here.

One assay addresses T1, CCK Receptor (Brain) (Cavia porcellus, UniProt H0VZC5).
T1 construct: the cortex was removed and homogenized in 25 mL ice-cold 0.32M sucrose; from tissue; host or cells: guinea pig cerebral cortex, P2 membrane pellet
T1 sequence (H0VZC5 1-426): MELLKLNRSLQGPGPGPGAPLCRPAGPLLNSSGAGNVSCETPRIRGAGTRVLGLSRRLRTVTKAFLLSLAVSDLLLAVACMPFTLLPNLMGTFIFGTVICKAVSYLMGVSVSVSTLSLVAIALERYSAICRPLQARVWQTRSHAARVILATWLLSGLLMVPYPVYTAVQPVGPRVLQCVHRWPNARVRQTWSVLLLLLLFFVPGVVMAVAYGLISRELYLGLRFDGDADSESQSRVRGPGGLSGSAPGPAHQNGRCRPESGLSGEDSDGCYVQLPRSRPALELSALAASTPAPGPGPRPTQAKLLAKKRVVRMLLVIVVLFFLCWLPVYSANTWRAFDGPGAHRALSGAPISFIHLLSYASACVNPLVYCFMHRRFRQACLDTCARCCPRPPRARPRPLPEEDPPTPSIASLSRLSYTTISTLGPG
Description: CCK Receptor Binding (Brain), inhibition of 125I-CCK-8 binding. The arrangement: species or system Male Hartley guinea pigs. On the procedure: 2. CCK Receptor Binding (Brain)
CCK-8 sulphated was radiolabelled and the binding was performed according to the description for the pancreas method with minor modifications.
Male Hartley guinea pigs (300-500 g) were sacrificed by decapitation and the cortex was removed and homogenized in 25 mL ice-cold 0.32M sucrose. The homogenates were centrifuged at 1000 g for 10 minutes and the resulting supernatant was recentrifuged at 20,000 g for 20 minutes. […] All assays were run in duplicate. The reaction mixtures were incubated at 25° C. for 2 hours and then the reaction was terminated on Whatman GF/C filters by rapid filtration (Brandell 24 well cell Harvester) with 3×5 ml washes of cold 100 mM NaCl. The radioactivity on the filters was then counted with a LKB gamma counter.
(§1) Drug displacement studies were performed with at least 10 concentrations of compounds of formula 1 and the IC50 values were determined by regression analysis.

Another assay addresses T2, CCK Receptor (Pancreas) (Rattus norvegicus, UniProt P30551).
T2 construct: The whole pancreas was dissected free of fat tissue and was homogenized; from tissue; host or cells: rat whole pancreas, homogenate membranes
T2 sequence (P30551 1-444): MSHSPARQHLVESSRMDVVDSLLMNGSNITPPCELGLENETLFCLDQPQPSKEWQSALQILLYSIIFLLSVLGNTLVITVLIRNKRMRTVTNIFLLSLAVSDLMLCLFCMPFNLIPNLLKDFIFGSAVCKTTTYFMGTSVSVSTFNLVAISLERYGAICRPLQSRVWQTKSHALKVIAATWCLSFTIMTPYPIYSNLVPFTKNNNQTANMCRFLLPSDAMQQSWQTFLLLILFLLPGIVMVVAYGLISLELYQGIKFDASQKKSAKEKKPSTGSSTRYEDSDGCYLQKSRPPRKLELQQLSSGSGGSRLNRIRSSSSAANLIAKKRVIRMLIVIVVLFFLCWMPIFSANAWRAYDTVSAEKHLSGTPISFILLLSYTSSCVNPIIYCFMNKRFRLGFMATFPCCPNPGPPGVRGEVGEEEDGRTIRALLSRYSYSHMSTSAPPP
Description: biochemical. It counts as binding, Male Sprague-Dawley rats. The procedure:
1. CCK Receptor Binding (Pancreas)
CCK-8 sulphated was radiolabelled with ^125 I-Bolton Hunter reagent (2000 Ci/mmole). Receptor binding was performed according to Chang and Lotti (Proc. Natl. Acad. Sci. 83, 4923-4926, 1986) with minor modifications.
Male Sprague-Dawley rats (150-200 g) were sacrificed by decapitation. The whole pancreas was dissected free of fat tissue and was homogenized in 25 volumes of ice-cold 10 mM Hepes buffer with 0.1% soya bean trypsin inhibitor (pH 7.4 at 25° C.) with a Kinematica Polytron. The homogenates were centrifuged at 47,800 g for 10 min. Pellets were resuspended in 10 volumes of binding assay buffer (20 mM Hepes, 1 mM EGTA, 5 mM MgCl2, 150 mM NaCl, bacitracin 0.25 mg/ml, soya bean trypsin inhibitor 0.1 mg/ml, and bovine serum albumin 2 mg/ml, pH 6.5 at 25° C.) using a teflon homogenizer, 15 strokes at 500 rpm. The homogenate was further diluted in binding assay buffer to give a final concentration of 0.5 mg original wet weight/1 ml buffer. […] All assays were run in duplicate. The reaction mixtures were incubated at 25° C. for 2 hours and the reaction terminated by rapid filtration (Brandell 24 well cell harvester) over Whatman GF/C filters, washing 3×4 mls with ice-cold 100 mM NaCl. The radioactivity on the filters was counted with a LKB gamma counter.
as §1

[1] abbreviates: guinea pig cortex membranes, 125I-CCK-8 50 pM, 25° C., 2 hours, read-out: IC50, 125I-CCK Brain.
Setting [2] is: rat pancreas membranes, 125I-CCK-8 50 pM, 25° C., 2 hours, read-out: IC50, 125I-CCK Pancreas.

What is called IC50 is the concentration that gives 50% inhibition. `CN1C(=O)[C@H](NC(=O)Nc2cccc(B(O)O)c2)N=C(c2ccccc2)c2ccccc21` [Example 15, N-{1,3-Dihydro-1-methyl-2-oxo-5-phenyl-1H-1,4-benzodiazepin-3-yl}-N'-{[3-phenylboronyl]urea}]: the IC50 on CCK Receptor (Brain) (setting [1]) stood at 9.6 nM; at CCK Receptor (Pancreas) (setting [2]) it was 420 nM.

Take `CN1C(=O)[C@H](NC(=O)Nc2cccc(C(N)=O)c2)N=C(c2ccccc2)c2ccccc21` [Example 10, N-{1,3-Dihydro-1-methyl-2-oxo-5-phenyl-1H-1,4-benzodiazepin-3-yl}-N'-{[3-(aminocarbonyl)phenyl]urea}]: the IC50 was found to be 28 nM on CCK Receptor (Brain) (setting [1]) and 1360 nM at CCK Receptor (Pancreas) (setting [2]).

On to `CC(=O)NS(=O)(=O)c1cccc(NC(=O)N[C@@H]2N=C(c3ccccc3)c3ccccc3N(C)C2=O)c1` [Example 16, N-{1,3-Dihydro-1-methyl-2-oxo-5-phenyl-1H-1,4-benzodiazepin-3-yl}-N'-{[3-(acetylaminosulfonyl)phenyl]urea}], for which the IC50 is 3.9 nM on CCK Receptor (Brain) (setting [1]) and greater than 3000 nM on CCK Receptor (Pancreas) (setting [2]).

As for `O=C(Nc1cccc(-c2noc(=O)[nH]2)c1)N[C@@H]1N=C(c2ccccc2)c2ccccc2N(CC2CC2)C1=O` [Example 35, N-{1,3-Dihydro-1-cyclopropylmethyl-2-oxo-5-phenyl-1H-1,4-benzodiazepin-3-yl}-N'-{[3-(1,2,4-oxadiazol-5-one)phenyl]urea}], the IC50 on CCK Receptor (Brain) (setting [1]) turned out to be 0.09 nM; at CCK Receptor (Pancreas) (setting [2]), 190 nM.

Regarding `CN1C(=O)[C@H](NC(=O)Nc2cccc(S(=O)(=O)NP(=O)(Oc3ccccc3)Oc3ccccc3)c2)N=C(c2ccccc2)c2ccccc21` [Example 31, N-{1,3-Dihydro-1-methyl-2-oxo-5-phenyl-1H-1,4-benzodiazepin-3-yl}-N'-{[3-(N-(diphenylphosphono)sulfonamido)phenyl]urea}], the IC50 is 15 nM on CCK Receptor (Brain) and greater than 3000 nM against CCK Receptor (Pancreas).

For `CN1C(=O)[C@H](NC(=O)Nc2cccc(-c3noc(=O)[nH]3)c2)N=C(c2ccccc2)c2ccccc21` [Example 34, N-{1,3-Dihydro-1-methyl-2-oxo-5-phenyl-1H-1,4-benzodiazepin-3-yl}-N'-{[3-(1,2,4-oxadiazol-5-one)phenyl]urea}], the values for the IC50 on CCK Receptor (Brain) (setting [1]) and at CCK Receptor (Pancreas) (setting [2]) were 0.19 nM and 1100 nM, respectively.

Take `CN1C(=O)[C@H](NC(=O)Nc2ccc3[nH]nnc3c2)N=C(c2ccccc2)c2ccccc21` [Example 13]: the results for the IC50 on CCK Receptor (Brain) (setting [1]) and against CCK Receptor (Pancreas) were 19 nM and 1500 nM, respectively.

On to `CC(C)NC(=O)NC(=O)c1cccc(NC(=O)N[C@@H]2N=C(c3ccccc3)c3ccccc3N(C)C2=O)c1` [Example 26, N-{1,3-Dihydro-1-methyl-2-oxo-5-phenyl-1H-1,4-benzodiazepin-3-yl}-N'-{[3-(N-(2-propylaminocarbonyl)carboxamido)phenyl]urea}], for which the 50% inhibitory concentration (IC50) is 410 nM on CCK Receptor (Brain) (setting [1]) and greater than 3000 nM at CCK Receptor (Pancreas) (setting [2]).

Take `CC[C@H](C)CN1C(=O)[C@H](NC(=O)Nc2cccc(-c3nnn[nH]3)c2)N=C(c2ccccc2)c2ccccc21` [Example 19, N-{1,3-Dihydro-1-[2-(S)-methylbutyl]-2-oxo-5-phenyl-1H-1,4-benzodiazepin-3-yl}-N'-{[3-(1H-tetrazol-5-yl)phenyl]urea}]: the IC50 came to 0.25 nM at CCK Receptor (Brain) (setting [1]) and 500 nM at CCK Receptor (Pancreas) (setting [2]).

`COP(=O)(Nc1cccc(NC(=O)N[C@@H]2N=C(c3ccccc3)c3ccccc3N(C)C2=O)c1)OC` [Example 11, N-{1,3-Dihydro-1-methyl-2-oxo-5-phenyl-1H-1,4-benzodiazepin-3-yl}-N'-{[3-(dimethylphosphoramido)phenyl]urea}]: the IC50 at CCK Receptor (Brain) (setting [1]) turned out to be 100 nM; on CCK Receptor (Pancreas) (setting [2]), 300 nM.

As for `CCN1C(=O)C(NC(=O)Nc2cccc(-c3nnn[nH]3)c2)N=C(c2ccccc2)c2ccccc21` (stereo not shown) [Example 3, N-{1,3-Dihydro-1-ethyl-2-oxo-5-phenyl-1H-1,4-benzodiazepin-3-yl}-N'-{[3-(1H-tetrazol-5-yl)phenyl]urea}], the IC50 at CCK Receptor (Brain) (setting [1]) was determined as 1.6 nM; against CCK Receptor (Pancreas), 29 nM.
